EC50 and Activity data for seven compounds are collected here from ChEMBL document CHEMBL1155903, “Cytotoxic calanquinone A from Calanthe arisanensis and its first total synthesis” (Bioorg Med Chem Lett, 2008).

Values after ≈ are worked out from the molar mass of the structure shown. Active and inactive are the calls of the source. The rule behind the calls is not given here.

What all share (format): functional, cell-based
The test system of assay [1] is KB. Nature of the assay: Cytotoxicity against human KB cells.
Assay [2] has as its system PC-3. The experiment in a line: Cytotoxicity against human PC3 cells.
In assay [3] the test system is HCT-8. Nature of the assay: Cytotoxicity against human HCT8 cells.
The subject of assay [4] is A549. The experiment in a line: Cytotoxicity against human A549 cells.
Assay [5] is described as follows: Cytotoxicity against human KBVIN cells.
For assay [6], the system named is MCF7. The experiment in a line: Cytotoxicity against human MCF7 cells.
In assay [7] the test system is DU-145. Nature of the assay: Cytotoxicity against human DU145 cells.
Assay [8] concerns MCF7. Nature of the assay: Cytotoxicity against human MCF7 cells up to 20 ug/mL.
The subject of assay [9] is KB. The experiment in a line: Cytotoxicity against human KB cells up to 20 ug/mL.
Assay [10] concerns PC-3. The experiment in a line: Cytotoxicity against human PC3 cells up to 20 ug/mL.
The test system of assay [11] is HCT-8. Nature of the assay: Cytotoxicity against human HCT8 cells up to 20 ug/mL.
Assay [12] deals with KBVIN. Nature of the assay: Cytotoxicity against human KBVIN cells up to 20 ug/mL.
Assay [13] concerns DU-145. The experiment in a line: Cytotoxicity against human DU145 cells up to 20 ug/mL.
For assay [14], the system named is A549. Nature of the assay: Cytotoxicity against human A549 cells up to 20 ug/mL.
The mark [15] stands for this setting: Homo sapiens, KB, read-out: EC50.
Setting [16] is: Homo sapiens, PC-3, read-out: EC50.
[17] abbreviates: Homo sapiens, A549, read-out: EC50.
Where [18] appears, read: Homo sapiens, KBVIN, read-out: EC50.
[19] abbreviates: Homo sapiens, DU-145, read-out: EC50.

In the case of `COC1=CC(=O)c2ccc3ccccc3c2C1=O` [ANNOQUINONE A], the EC50 in assay [1] (setting [15]) is 1.6 µg/mL (≈ 6.72 µM).

With `COC1=CC(=O)c2ccc3cc(OC)c(OC)c(OC)c3c2C1=O`, the EC50 in [2] (setting [16]) was determined as 7.81 µg/mL (≈ 23.8 µM); in assay [3] it was 15.2 µg/mL (≈ 46.4 µM); in [4] (setting [17]) it was 7.06 µg/mL (≈ 21.5 µM); in assay [5] (setting [18]), 9.14 µg/mL (≈ 27.8 µM); in assay [1] (setting [15]) it was 8.08 µg/mL (≈ 24.6 µM); in assay [6], 5.33 µg/mL (≈ 16.2 µM). In assay [7] (setting [19]), the EC50 was 4.4 µg/mL (≈ 13.4 µM).

As to `COC1=CC(=O)C(C=O)=C(c2c(C)cc(OC)c(OC)c2OC)C1=O`, the outcome in assay [8], in [9], in assay [10], in [11], in [12] and in assay [13] was inactive. Besides, the outcome in assay [14] was inactive.

As to `COC(=O)C1=C(c2c(C)cc(OC)c(OC)c2OC)C(=O)C(OC)=CC1=O`, the EC50 in assay [2] (setting [16]) amounted to 6.09 µg/mL (≈ 16.2 µM); in assay [3], 5.85 µg/mL (≈ 15.5 µM); in assay [4] (setting [17]) it was 6.12 µg/mL (≈ 16.3 µM); in assay [5] (setting [18]), 5.48 µg/mL (≈ 14.6 µM); in assay [1] (setting [15]) it was 4.02 µg/mL (≈ 10.7 µM); in [6], 6.4 µg/mL (≈ 17 µM). In [7] (setting [19]), the EC50 was 4.74 µg/mL (≈ 12.6 µM).

As for `COc1cc(OC)c(OC)c(-c2c(C)cc(OC)c(OC)c2OC)c1C=O`, the result in [8], in [9], in assay [10], in assay [11], in assay [12] and in [13] was inactive. For the same compound, the outcome in assay [14] was inactive.

`COC1=CC(=O)c2ccc3cc(OC)c(OC)c(O)c3c2C1=O` [CALANQUINONE A]: the 50% effective concentration (EC50) in [2] (pc-3) stood at 0.75 µg/mL (≈ 2.39 µM); in assay [3], 0.29 µg/mL (≈ 0.923 µM); in [4] (a549), 0.31 µg/mL (≈ 0.986 µM); in assay [5] (kbvin), 0.24 µg/mL (≈ 0.764 µM); in assay [1] (kb) it was 0.3 µg/mL (≈ 0.955 µM); in assay [7] (du-145), 0.48 µg/mL (≈ 1.53 µM).

For the compound `COc1cc2ccc3c(OC)cc(OC)c(OC)c3c2c(OC)c1OC`, the outcome in assay [8], in assay [9], in assay [10], in [11], in [12] and in assay [13] was inactive. For the same compound, the outcome in assay [14] was inactive.

One may read the EC50 as the concentration giving half of the maximal effect.
